Source: patent US20240182492A1, “AZAHETEROARYL COMPOUND, PREPARATION METHOD THEREFOR, AND APPLICATION THEREOF” (SHANGHAI BLUERAY BIOPHARMA CO., LTD., priority 2021, published 2024)

What was measured:
[1] = biological target: T1, EED protein (full-length, His6 tag) binding to H3K27me3 polypeptide (Homo sapiens, UniProt O75530); experiment: AlphaScreen evaluation of blocking the binding of EED to H3K27Me3; conditions: EED / biotinylated H3K27me3 peptide competition
T1 construct: The full-length EED protein (441 amino acids) with His6 tag
T1 sequence (O75530 whole entry): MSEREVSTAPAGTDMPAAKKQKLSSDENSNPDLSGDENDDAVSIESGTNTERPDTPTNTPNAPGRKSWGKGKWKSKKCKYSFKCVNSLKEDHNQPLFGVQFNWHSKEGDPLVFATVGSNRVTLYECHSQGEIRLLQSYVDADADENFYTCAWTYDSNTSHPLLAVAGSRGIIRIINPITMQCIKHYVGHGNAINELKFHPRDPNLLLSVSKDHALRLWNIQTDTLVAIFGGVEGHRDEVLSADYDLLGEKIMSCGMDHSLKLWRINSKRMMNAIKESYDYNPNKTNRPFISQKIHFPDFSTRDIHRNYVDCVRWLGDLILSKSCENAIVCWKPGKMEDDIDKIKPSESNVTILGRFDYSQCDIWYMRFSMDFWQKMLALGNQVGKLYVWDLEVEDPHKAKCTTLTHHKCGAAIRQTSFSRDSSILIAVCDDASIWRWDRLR
Procedure: Example 53: Evaluation of the Effect of the Compound in Blocking the Binding of EED to H3K27Me3 by AlphaScreen (a-Screening) Method
First, compound solutions with different concentration gradients are prepared. Compound powder is dissolved in DMSO to form mother liquor. 1.5 μL of the compound mother liquor is taken to 198.5 μL reaction buffer (25 mM HEPES (pH 8.0), 50 mM NaCl, 0.015% Tween 20, 0.5% BSA) and the solution is mix uniformly, and then 3-fold gradient dilution is performed with the above buffer containing 0.75% DMSO. 9 different test concentrations are set for the same compound. 5 μL of compounds with different concentration gradients was taken to ProxiPlate-384 Plus, White detection plate (PerkinElmer, 6008280), and 2 parallel replicates are set for each concentration gradient.
Next, a binding blocking reaction is performed. The full-length EED protein (441 amino acids) with His6 tag is diluted to 60 nM with the above buffer, and the biotinylated polypeptide fragment H3K27me3 (amino acids 19-33) (Biotinylated-H3K27me3) is diluted to 75 nM with the same buffer. 5 μL of 75 nM peptide fragments and 5 μL of 60 nM protein are transferred to the testing wells containing the compound respectively. The testing plate is sealed with a film, and is incubated for 30 minutes at room temperature.
Finally, AlphaScreen method is used for detection. Before use, nickel chelate acceptor beads and streptavidin donor beads (Perkin Elmer, product number 6760619M) are mixed into the above reaction buffer at a ratio of 1:1, and then 5 μL of the above pre-mixed testing solution is added to each testing well. The final concentration of the donor beads and acceptor beads is 5 μg/mL. The testing plate is covered with tin foil and placed at room temperature in the dark for 1 hour. Signals are read using an AlphaScreen detector on a Spectra max i3. The AlphaScreen signal is normalized according to the readings obtained from the positive control (maximum signal control) and negative control (minimum signal control) to give the inhibition rate of different concentrations of the compound. After that, non-linear regression analysis was performed with GraphPad Prism 5, and dose-response equation Y=Bottom+(Top−Bottom)/(1+10^((Log IC50−X)*HillSlope)) is used to make an inhibition curve, obtaining the IC50 value of each compound. […]

[2] = tested on: trimethylation level of histone H3K27 in G401 cells; experiment: ELISA (H3K27 trimethylation) analysis in G401 cells; format: cell-based; conditions: H3K27me3 normalized by H3
Procedure: Example 54: ELISA (H3K27 Trimethylation) Analysis
Representative compounds of the present disclosure are diluted in DMSO with 3-fold gradient, and 10 concentration gradients are tested per compound. The maximum testing concentration is 10 μM. The compound is diluted 200-fold into G401 cells cultured in 96-well plates (the final concentration of DMSO is 0.5%). After the cells are cultured for 72 hours, the trimethylation level of histone H3K27 is detected by ELISA method.
Histone extraction: compound-treated cells in a 96-well plate are washed 3 times with 1×PBS (10×PBS buffer (80 g NaCl (Sigma, Product No. S3014), 2 g KCl (Sigma, Product No. 60128), 14.4 g Na2HAPO4 (Sigma, Product No. S5136) and 2.4 g KH2PO4 (Sigma, Product No. P9791) are added to 1 L water, pH to 7.4), and 100 μL of 0.4N HCl is added to each well. The 96-well plate is placed at 4° C. and gently shaken for 2 hours to lyse the cells. The cell lysate is then neutralized with 80 μL of neutralization buffer (0.5M disodium hydrogen phosphate, pH 12.5, 2.5 mM DTT; 1% cocktail (Sigma, Product No. P8340) (mixing the cell lysate and neutralization buffer thoroughly).
ELISA detection method: the cell lysates are transferred in parallel to two 384-well assay plates (PerkinElmer, OptiPlate-384HB, Product No. 6007290). One plate is used to detect the trimethylation level of H3K27, and the other plate is used to measure the level of H3. PBS is adjusted to a final volume of 50 μL/well. The wells are coated overnight at 4° C. On the next day, the solution in the wells was discarded. TBST buffer (1 xTBS (10×TBS: 24.2 g Tris (Sigma, Product No. T6066) and 80 g NaCl (Sigma, Product No. S3014) are added to 1 L water, and pH is adjusted to 7.6 with HCl) and 0.1% Tween-20) is used to wash it 5 times, and the water is dried on absorbent papers. 70 μL of blocking buffer (TBST, 5% BSA) is added to the coated reaction wells, and the wells are incubated for 1 hour at room temperature. The blocking buffer was discarded, and the primary antibody is added (30 μL/well). The required primary antibodies are diluted with blocking buffer, and the dilution ratios were as follows: anti-H3K27me3 antibody (Cell Signaling Technology, Product No. 9733), 1:2000 dilution; anti-H3 antibody (Cell Signaling Technology, Product No. 4499), 1:10000 dilution. After adding the primary antibody, the wells are incubated at room temperature for 1 hour. After washing with TBST for 5 times, the water are dried. The secondary antibody (30 μL/well) is added to each reaction well, and the wells are incubated at room temperature for 1 hour. Secondary antibody (anti-rabbit antibody (Jackson ImmunoResearch, Product No. 111-035-003)) is used after dilution 2000-fold in blocking buffer. After 1 hour, it is washed with TBST and dried. 30 μL of ECL substrate (Pierce, Product No. 34080) is added to each well and centrifuged for 30 seconds at 2000 rpm. Signal of each sample is detected using Molecular Devices, SpectraMax. Data processing: H3K27 methylation readings are first normalized by H3 signal. 0.500 DM8)-treated sample is used as a control, and the inhibition percentage of the compound is calculated. The data is fitted to a dose-response curve using the GraphPad prisim5 program, obtaining the IC50 values of the test compounds.

[3] = tested on: B-cell non-Hodgkin lymphoma cells KARPAS-422; experiment: Cell proliferation analysis, KARPAS-422, 13 days, CellTiter-Glo; format: cell-based, Human; conditions: Karpas-422, 13 days
Procedure: Example 55: Cell Proliferation Analysis
Human B-cell non-Hodgkin lymphoma cells KARPAS-422 S were cultured in culture flasks using standard cell culture conditions. The culture medium contains 15% fetal bovine serum (FBS, Invitrogen, product number 10099-141), 1% penicillin/streptomycin solution (P/S) RPMI-1640 (Invitrogen, product number 11875), and the culture flask is placed and cultured in a sterile incubator at 37° C., 95% relative humidity, and 5% CO2. In order to detect the effect of PRC2 inhibitors on cell proliferation, cells in the exponential growth phase were seeded into 96-well plates (Corning, product number 3904) at a density of 1×10^4 cells/well, and 100 μL of medium was added to each well. Subsequently, the compounds disclosed herein at different concentrations were added to the wells seeded with cells (9 concentration gradients were set for each compound, and the highest detection concentration was 10 μM, 3-fold gradient dilution), and 2 repeats in parallel were set for each treatment concentration. The final concentration of DMSO is 0.5%. Then the number of surviving cells was counted with Vi-CELL (Beckman Coulter) every 3-4 days. The cells counted each time were seeded into a new 96-well plate at the same density (1×10^4 cells/well). The wells were supplemented with fresh medium to 100 μL, and different concentrations of the compound were added at the same time. The cells were cultured until the 13th day, on which 100 μL of CellTiter-Glo (CellTiter-GloCellTiter-GloCellTiter-GloCTG) (Promega, Product No. G7573) was added to each well. The plate was placed for 10-20 minutes in the dark at room temperature, and Molecular Devices and SpectraMax i3X were used to read the luminous signal. The data were fitted to a dose-response curve using GraphPad prisim5 and the IC50 values of the tested compounds were obtained.

[4] = Homo sapiens, KARPAS-422, 312 h

Row | IC50 [1] | IC50 [3] | IC50 [3, 4] | Compound | IC50 ([2]; 72 hours) | IC50 ([2]; Homo sapiens, G-401, 72 h)
1 | 0.0066 µM | 0.0054 µM | – | CCC(O)c1ccc(-c2cnc(NCc3c(F)ccc4c3CCO4)n3cnnc23)c2ncnn12 (single isomer, unassigned) [Compound f] | 0.0013 µM | –
2 | 0.0047 µM | – | 0.0033 µM | OC1(c2ccc(-c3cnc(NCc4c(F)ccc5c4CCO5)n4cnnc34)c3ncnn23)CC1 [1-[8-(5-{[(5-fluoro-2,3-dihydro-1-benzofuran-4-yl)methyl]amino]-[1,2,4]triazolo[4,3-c]pyrimidin-8-yl)-[1,2,4]triazol[1,5-a]pyridin-5-yl]cyclopropan-1-ol] | – | 0.0009 µM
3 | 0.0035 µM | – | 0.0077 µM | CCC(O)(CC)c1ccc(-c2cnc(NCc3c(F)ccc4c3CCO4)n3cnnc23)c2ncnn12 [3-(8-(5-(((5-fluoro-2,3-dihydrobenzofuran-4-yl)methyl)amino)-[1,2,4]triazolo[4,3-c]pyrimidin-8-yl)-[1,2,4]triazolo[1,5-a]pyridin-5-yl)pentan-3-ol] | – | 0.0024 µM
4 | 0.0113 µM | – | 0.0102 µM | CC(C)(O)Cc1ccc(-c2cnc(NCc3c(F)ccc4c3CCO4)n3cnnc23)c2ncnn12 [1-(8-(5-(((5-fluoro-2,3-dihydrobenzofuran-4-yl)methyl)amino)-[1,2,4]triazolo[4,3-c]pyrimidin-8-yl)-[1,2,4]triazolo[1,5-a]pyridin-5-yl)-2-methylpropan-2-ol] | – | 0.0032 µM
5 | 0.0075 µM | – | 0.0087 µM | Cc1cc(-c2cnc(NCc3c(F)ccc4c3CCO4)n3cnnc23)c2ncnn2c1C(C)(C)O [2-(8-(5-(((5-fluoro-2,3-dihydrobenzofuran-4-yl)methyl)amino)-[1,2,4]triazolo[4,3-c]pyrimidin-8-yl)-6-methyl-[1,2,4]triazolo[1,5-a]pyridin-5-yl)propan-2-ol] | – | 0.0024 µM
6 | 0.0062 µM | – | 0.0066 µM | CC(C)(O)c1ncc(-c2cnc(NCc3c(F)ccc4c3CCO4)n3cnnc23)c2ncnn12 [2-(8-(5-(((5-fluoro-2,3-dihydrobenzofuran-4-yl)methyl)amino)-[1,2,4]triazolo[4,3-c]pyrimidin-8-yl)-[1,2,4]triazolo[1,5-c]pyrimidin-5-yl)propan-2-ol] | – | 0.0028 µM
7 | 0.0064 µM | 0.002 µM | – | CCC(O)c1ccc(-c2cnc(NCc3c(F)ccc4c3CCO4)n3cnnc23)c2ncnn12 (single isomer, unassigned) [Compound e] | 0.0004 µM | –
8 | 0.0075 µM | – | 0.0052 µM | CCC(C)(O)c1ccc(-c2cnc(NCc3c(F)ccc4c3CCO4)n3cnnc23)c2ncnn12 (stereo not drawn) [2-(8-(5-(((5-fluoro-2,3-dihydrobenzofuran-4-yl)methyl)amino)-[1,2,4]triazolo[4,3-c]pyrimidin-8-yl)-[1,2,4]triazolo[1,5-a]pyridin-5-yl)butan-2-ol] | – | 0.0021 µM
9 | 0.0089 µM | 0.0079 µM | – | CCC(C)(O)c1ccc(-c2cnc(NCc3c(F)ccc4c3CCO4)n3cnnc23)c2ncnn12 (single isomer, unassigned) [Compound b] | 0.0017 µM | –
10 | 0.0069 µM | – | 0.0041 µM | OC(CF)(CF)c1ccc(-c2cnc(NCc3c(F)ccc4c3CCO4)n3cnnc23)c2ncnn12 [1,3-difluoro-2-[8-(5-{[(5-fluoro-2,3-dihydro-1-benzofuran-4-yl)methyl]amino]-[1,2,4]triazolo[4,3-c]pyrimidin-8-yl)-[1,2,4]triazol[1,5-a]pyridin-5-yl]propan-2-ol] | – | 0.0011 µM
11 | 0.0065 µM | – | 0.0032 µM | CCC(O)c1ccc(-c2cnc(NCc3c(F)ccc4c3CCO4)n3cnnc23)c2ncnn12 (stereo not drawn) [1-(8-(5-(((5-fluoro-2,3-dihydrobenzofuran-4-yl)methyl)amino)-[1,2,4]triazolo[4,3-c]pyrimidin-8-yl)-[1,2,4]triazolo[1,5-a]pyridin-5-yl)propan-1-ol] | – | 0.0026 µM

Row | Compound | IC50 [1] | IC50 [3] | IC50 [3, 4] | IC50 ([2]; 72 hours) | IC50 ([2]; Homo sapiens, G-401, 72 h)
12 | CC(O)(c1ccc(-c2cnc(NCc3c(F)ccc4c3CCO4)n3cnnc23)c2ncnn12)C(F)(F)F (stereo not drawn) [1,1,1-trifluoro-2-(8-(5-(((5-fluoro-2,3-dihydrobenzofuran-4-yl)methyl)amino)-[1,2,4]triazolo[4,3-c]pyrimidin-8-yl)-[1,2,4]triazolo[1,5-a]pyridin-5-yl)propan-2-ol] | 0.0048 µM | – | 0.0088 µM | – | 0.0019 µM
